According to patent US5360803A, “Composition and method for treating cancer” (Dan Farber Cancer Institute, priority 1992, dated 1994):

Legend:
Type in all cases: cell-based
[1] = system: CV-1 cells; assay: selective killing assay, colony number reduced to 50% of control, normal monkey kidney epithelial cell line CV-1; conditions: 24 hours treatment; for IC50: Primates
From the text: The control received culture media only.

[2] = system: CX-1 cells; assay: selective killing assay, colony number reduced to 50% of control, human colon carcinoma cell line CX-1; conditions: for Selectivity (ratio of IC50 for CV-1 and IC50 for CX-1): CV-1/CX-1; for IC50 / CX-1 (IC50): human colon carcinoma, 24 hours treatment, colony count after 7 to 10 days;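 as to all read-outs here: colonies stained with crystal violet and counted, control cells given medium alone, exposure at 37 °C, normal monkey kidney epithelial CV-1 cells as the non-cancer comparator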
[3] = system: CRL 1420 cells; assay: colony assay of Example 1 with human pancreatic carcinoma CRL 1420 cell line; conditions: for Selectivity: CV-1/CRL-1420;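 as to all read-outs here: colony formation assay, cells exposed for 24 h then regrown 7 to 10 days without compound, colonies stained with crystal violet, control given medium alone, normal reference CV-1 monkey kidney epithelial cells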
[4] = system: LOX cells; assay: colony assay of Example 1 with human melanoma LOX cell line; conditions: for Selectivity: CV-1/LOX;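 as to all read-outs here: colony formation assay with 24 h exposure at 37 °C, then 7 to 10 days of regrowth, crystal violet staining of colonies, control wells given medium alone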
[5] = system: EJ cells; assay: colony assay of Example 1 with human bladder carcinoma EJ cell line;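 also: colony formation assay with 24 h compound exposure at 37 °C, then 7–10 days drug-free regrowth, colonies stained with crystal violet, controls given medium alone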
[6] = CV-1, Table III, normal monkey kidney epithelial cells, colony count after 7 to 10 days
[7] = Table III, normal monkey kidney epithelial cells, colony count after 7 to 10 days

With `CCn1c(=Cc2sc3ccc(OC)cc3[n+]2CC)sc(=C2Sc3ccc4ccccc4c3N2C)c1=O` [Compound 95] the IC50 [1, 6] was 20 µg/mL, the “Selectivity (ratio of IC50 for CV-1 and IC50 for CX-1)” value [2] was 500 and the IC50 ([2]; Homo sapiens, CX-1, Table III) was 0.04 µg/mL.
With `CCn1c(=Cc2sc3ccc4ccccc4c3[n+]2CC)sc(=C2Sc3ccc(Cl)cc3N2C)c1=O` [Compound 223] the IC50 [1, 6] was 20 µg/mL, the “Selectivity (ratio of IC50 for CV-1 and IC50 for CX-1)” value [2] was 200 and the IC50 ([2]; Homo sapiens, CX-1, Table III) was 0.1 µg/mL.
`CC[N+]1=C(C=c2sc(=C3Oc4ccc5ccccc5c4N3C)c(=O)n2Cc2ccccc2)SCC1` [Compound 314] was tested, and the IC50 [1, 6] was 10 µg/mL, the “Selectivity (ratio of IC50 for CV-1 and IC50 for CX-1)” value [2] was 200 and the IC50 ([2]; Homo sapiens, CX-1, Table III) was 0.05 µg/mL.
`CCn1c(=Cc2sc3c4ccccc4ccc3[n+]2CC)sc(=C2Sc3ccc4ccccc4c3N2C)c1=O` [Compound 91] was tested, and the “CV-1 (IC50)” value [1, 7] was 20 µg/mL, the “Selectivity (ratio of IC50 for CV-1 and IC50 for CX-1)” value [2] was 500 and the “CX-1 (IC50)” value ([2]; Table III) was 0.04 µg/mL.
For `CCn1c(=Cc2ccc3ccccc3[n+]2CC)sc(=C2Sc3ccccc3N2C)c1=O` [Compound 341], the Selectivity [3] was 200, the “CRL-1420(IC50)” value ([3]; Table VII, human pancreatic carcinoma, 24 hours treatment) was 0.03 µg/mL and the “CV-1 (IC50)” value ([1]; Table V) was 6 µg/mL. The “CV-1 (IC50)” value ([1]; Table VII) was 6 µg/mL, the Selectivity [4] was 200 and the “LOX(IC50)” value ([4]; Table V, human melanoma, 24 hours treatment) was 0.03 µg/mL.
With `CCn1c(=CC2=[N+](CC)CCS2)sc(=C2Sc3ccc4ccccc4c3N2C)c1=O` [Compound 86] the IC50 [1, 6] was 10 µg/mL, the “Selectivity (ratio of IC50 for CV-1 and IC50 for CX-1)” value [2] was 200 and the IC50 ([2]; Homo sapiens, CX-1, Table III) was 0.05 µg/mL.
`CN1C(=c2sc(=Cc3oc4ccccc4[n+]3C)n(C)c2=O)Sc2ccccc21` [Compound 46] was tested, and the IC50 [1, 6] was 10 µg/mL, the “Selectivity (ratio of IC50 for CV-1 and IC50 for CX-1)” value [2] was 100 and the IC50 ([2]; CX-1, Table III) was 0.1 µg/mL.
With `CCn1c(=CC2=[N+](CC)CCS2)sc(=C2Sc3ccc(OC)cc3N2C)c1=O` [Compound 65] the IC50 [1, 6] was 20 µg/mL, the “Selectivity (ratio of IC50 for CV-1 and IC50 for CX-1)” value [2] was 100 and the IC50 ([2]; Homo sapiens, CX-1, Table III) was 0.2 µg/mL.
With `CCn1c(=Cc2oc3ccccc3[n+]2CC)sc(=C2Oc3ccccc3N2C)c1=O` [Compound 104] the IC50 [1, 6] was 18 µg/mL, the “Selectivity (ratio of IC50 for CV-1 and IC50 for CX-1)” value [2] was 180 and the IC50 ([2]; Homo sapiens, CX-1, Table III) was 0.1 µg/mL.
With `CCn1c(=CC2=[N+](CC)C(C)CS2)sc(=C2Sc3ccc4ccccc4c3N2C)c1=O` (stereo not drawn) [Compound 309] the IC50 [1, 6] was 4 µg/mL, the “Selectivity (ratio of IC50 for CV-1 and IC50 for CX-1)” value [2] was 400 and the IC50 ([2]; Homo sapiens, CX-1, Table III) was 0.01 µg/mL.
Work on `CCn1c(=Cc2sc3ccc4ccccc4c3[n+]2CC)sc(=C2Oc3ccc(Cl)cc3N2C)c1=O` [Compound 209] yielded a Selectivity [3] of 200, an IC50 ([3]; Homo sapiens, 24 h, Table VII, human pancreatic carcinoma, 24 hours treatment) of 0.1 µg/mL and an IC50 ([1]; CV-1, 24 h, Table V) of 20 µg/mL. The IC50 ([1]; CV-1, 24 h, Table VII) was 20 µg/mL, the Selectivity [4] was 100 and the IC50 ([4]; Homo sapiens, LOX, 24 h, Table V, human melanoma, 24 hours treatment) was 0.2 µg/mL.
For `CCn1c(=Cc2scc(C)[n+]2CC)sc(=C2Sc3ccccc3N2C)c1=O` [Compound 32], the IC50 [1, 6] was 6 µg/mL, the “Selectivity (ratio of IC50 for CV-1 and IC50 for CX-1)” value [2] was 150 and the IC50 ([2]; Homo sapiens, CX-1, Table III) was 0.04 µg/mL.
`CCn1c(=Cc2oc3ccccc3[n+]2C)sc(=C2Sc3ccccc3N2C)c1=O` [Compound 25] was tested, and the “CV-1 (IC50)” value [1, 7] was 6 µg/mL, the “Selectivity (ratio of IC50 for CV-1 and IC50 for CX-1)” value [2] was 150 and the “CX-1 (IC50)” value ([2]; Table III) was 0.04 µg/mL.
`CCn1c(=Cc2oc3ccccc3[n+]2CC)sc(=C2Oc3ccc4ccccc4c3N2C)c1=O` [Compound 117] was tested, and the IC50 [1, 6] was 4 µg/mL, the “Selectivity (ratio of IC50 for CV-1 and IC50 for CX-1)” value [2] was 133 and the IC50 ([2]; Homo sapiens, CX-1, Table III) was 0.03 µg/mL.
In the case of `CCn1c(=Cc2sc3ccccc3[n+]2CC)sc(=C2Oc3ccc(OC)cc3N2C)c1=O` [Compound 105], the IC50 [1, 6] was 6 µg/mL, the “Selectivity (ratio of IC50 for CV-1 and IC50 for CX-1)” value [2] was 120 and the IC50 ([2]; Homo sapiens, CX-1, Table III) was 0.05 µg/mL.
`CCn1c(=Cc2sc3ccccc3[n+]2CC)sc(=C2SC3=C(CCCC3)N2C)c1=O` [Compound 129] was tested, and the IC50 [1, 6] was 10 µg/mL, the “Selectivity (ratio of IC50 for CV-1 and IC50 for CX-1)” value [2] was 100 and the IC50 ([2]; Homo sapiens, CX-1, Table III) was 0.1 µg/mL.
With `CCn1c(=Cc2sc3c4ccccc4ccc3[n+]2CC)sc(=C2Sc3c(ccc4ccccc34)N2C)c1=O` [Compound 99] the IC50 [1, 6] was 10 µg/mL, the “Selectivity (ratio of IC50 for CV-1 and IC50 for CX-1)” value [2] was 100 and the IC50 ([2]; Homo sapiens, CX-1, Table III) was 0.1 µg/mL.
Work on `CC[n+]1c(C=c2sc(=C3Sc4ccc5ccccc5c4N3C)c(=O)n2CC(=O)OC)sc2c3ccccc3ccc21` [Compound 311] yielded an IC50 ([1]; CV-1, 24 h, Table IV) of 20 µg/mL, an IC50 [1, 6] of 20 µg/mL and a Selectivity ([5]; CV-1/EJ) of 400. The IC50 ([5]; Homo sapiens, EJ, 24 h, Table IV, human bladder carcinoma, 24 hours treatment) was 0.05 µg/mL, the “Selectivity (ratio of IC50 for CV-1 and IC50 for CX-1)” value [2] was 667 and the IC50 ([2]; Homo sapiens, CX-1, Table III) was 0.03 µg/mL.
With `CCN1C(=CC=c2sc(=Cc3sc4c([n+]3CC)CCCC4)n(CC)c2=O)Oc2ccccc21` [C, reference compound] the IC50 [1, 6] was 2 µg/mL, the “Selectivity (ratio of IC50 for CV-1 and IC50 for CX-1)” value [2] was 50 and the IC50 ([2]; Homo sapiens, CX-1, Table III) was 0.04 µg/mL.
For `CC[n+]1c(C=c2sc(=C3Sc4ccccc4N3C)c(=O)n2C2CCCCC2)oc2ccccc21` [Compound 42], the IC50 [1, 6] was 2 µg/mL, the “Selectivity (ratio of IC50 for CV-1 and IC50 for CX-1)” value [2] was 100 and the IC50 ([2]; Homo sapiens, CX-1, Table III) was 0.02 µg/mL.
In the case of `CCn1c(=Cc2sc3ccc4ccccc4c3[n+]2CC)sc(=C2C=Cc3ccccc3N2C)c1=O` [Compound 163], the IC50 [1, 6] was 20 µg/mL, the “Selectivity (ratio of IC50 for CV-1 and IC50 for CX-1)” value [2] was 667 and the IC50 ([2]; Homo sapiens, CX-1, Table III) was 0.03 µg/mL.
